Measured values: patent US12122776B2, “Tetracyclic compounds and uses thereof” (Gilead Sciences, Inc., priority 2020, dated 2024)
Where two headings read alike, the source gives them in different places.

What was measured:
Format in all cases: cell-based
HIV-1 (IIIB) = experiment: Antiviral assay in MT-4 cells; settings: Human immunodeficiency virus 1, MT4, 120 h; replication of HIV-1 (IIIB) in MT-4 cells, 5 days incubation, Cell Titer Glo
Protocol: Example 24: HIV MT-4 Antiviral and Cytotoxicity Assay
Antiviral Assay in MT-4 Cells
Compounds were tested in a high-throughput 384-well assay format for their ability to inhibit the replication of HIV-1 (IIIB) in MT-4 cells. Compounds were serially diluted (1:3) in DMSO on 384-well polypropylene plates and further diluted 200-fold into complete RPMI media (10% FBS, 1% P/S) using the Biotek Micro Flow and Labcyte ECHO acoustic dispenser. Each plate contained up to 8 test compounds, with negative (No Drug Control) and 5 μM AZT positive controls. MT-4 cells were pre-infected with 10 μL of either RPMI (mock-infected) or a fresh 1:250 dilution of HIV-1 IIIB concentrated virus stock. Infected and uninfected MT-4 cells were further diluted in complete RPMI media and added to each plate using a Micro Flow dispenser. After 5 days incubation in a humidified and temperature controlled incubator (37° C.), Cell Titer Glo (Promega) was added to the assay plates and chemiluminescence read using an Envision plate-reader. EC50 values were defined as the compound concentration that causes a 50% decrease in luminescence signal, and were calculated using a sigmoidal dose-response model to generate curve fits.

pLai RLuc reporter virus = experiment: HIV MT-4 serum shift antiviral reporter assay; settings: Human immunodeficiency virus 1, MT4, 72 h
Protocol: Example 25: HIV MT-4 Serum Shift Antiviral Reporter Assay
To quantify the amount of protein binding to human serum, compounds were serially diluted (1:3) in DMSO and acoustically transferred onto 384-well assay plates via a Labcyte ECHO robot. Each plate contained up to 8 test compounds, including negative and positive controls, (DMSO, 5 μM AZT respectively). Assay plates were prepared in duplicate, and tested in either CCM (cell culture media) or HS/CCM (human serum/cell culture media). MT-4 cells were first pre-infected with pLai RLuc reporter virus for 2 h at 37° C., then further diluted in either CCM (RPMI media, 10% FBS, 1% P/S) or HS/CCM (RPMI media, 10% FBS, 50% HS, 1% P/S), and subsequently added to each plate using a Biotek Micro Flow dispenser. After a 72-h incubation in a humidified and temperature controlled incubator (37° C.), Renilla Glo (Promega) was added to all assay plates and chemiluminescence read using an Envision plate-reader. EC50 values were defined as the compound concentration that causes a 50% decrease in luminescence signal, and were calculated using a sigmoidal dose-response model to generate curve fits. To determine the amount of protein binding, EC50 fold shifts (or EC50 shifts) were calculated by dividing EC50 (HS/CCM)/EC50 (CCM).

[1] = Cytotoxicity assay in MT-4 cells; settings: human; uninfected MT-4 cells, 5 days incubation, Cell Titer Glo
Protocol: Cytotoxicity Assay in MT-4 Cells Assays were performed as above except uninfected MT-4 cells were added to each well containing test compound. In addition, 10 μM puromycin was added to the last column of each assay plate to assess a base level of cytotoxicity.

[2] = read-out: Antiviral Serum Shift RLuc 50% HS
[3] = read-out: Antiviral Serum Shift RLuc CCM

| Structure (SMILES) | EC50 (HIV-1 (IIIB)) | EC50 (pLai RLuc reporter virus; [2]) | EC50 (pLai RLuc reporter virus; [3]) | CC50 at 5 days [1] |
| --- | --- | --- | --- | --- |
| O=C1c2c(O)c(=O)c(-c3nnc(Cc4c(F)cc(F)cc4F)s3)c3n2C2(CCCCN1C2)CC3 (centres unmarked) [Compound 7, 11-hydroxy-9-(5-(2,4,6-trifluorobenzyl)-1,3,4-thiadiazol-2-yl)-3,4,5,6,7,8-hexahydro-2,6a-methano[1,4]diazonino[9,1,2-cd]indolizine-1,10-dione] | 3.8 nM | 60.8 nM | 0.997 nM | 3800 nM |
| C[C@@]1(O)C[C@]23CCCCN(C2)C(=O)c2c(O)c(=O)c(C(=O)NCc4c(F)cc(F)cc4F)c1n23 [Compound 17, (6aR,8R)-8,11-dihydroxy-8-methyl-1,10-dioxo-N-(2,4,6-trifluorobenzyl)-1,3,4,5,6,7,8,10-octahydro-2,6a-methano[1,4]diazonino[9,1,2-cd]indolizine-9-carboxamide] | 1.2 nM | 1.1 nM | 0.13 nM | 3170 nM |
| O=C(NCc1c(F)cc(F)cc1F)c1c2n3c(c(O)c1=O)C(=O)N1CCCC[C@@]3(CC2CO)C1 (stereo partly drawn) [Compound 18, (6aR)-11-hydroxy-8-(hydroxymethyl)-1,10-dioxo-N-(2,4,6-trifluorobenzyl)-1,3,4,5,6,7,8,10-octahydro-2,6a-methano[1,4]diazonino[9,1,2-cd]indolizine-9-carboxamide] | 10.7 nM | 0.97 nM | 0.87 nM | 25200 nM |
| C[C@H]1C=CC[C@]23CCc4c(C(=O)NCc5c(F)cc(F)cc5F)c(=O)c(O)c(n42)C(=O)N1C3 [Compound 20, (3S,6aS)-11-hydroxy-3-methyl-1,10-dioxo-N-(2,4,6-trifluorobenzyl)-1,3,6,7,8,10-hexahydro-2,6a-methano[1,4]diazonino[9,1,2-cd]indolizine-9-carboxamide] | 0.83 nM | 16 nM | 0.31 nM | 3340 nM |
| CO[C@H]1CC[C@H](C)N2C[C@]13CCc1c(C(=O)NCc4c(F)cc(F)cc4F)c(=O)c(O)c(n13)C2=O [Compound 23-2, (3S,6S,6aR)-11-hydroxy-6-methoxy-3-methyl-1,10-dioxo-N-(2,4,6-trifluorobenzyl)-1,3,4,5,6,7,8,10-octahydro-2,6a-methano[1,4]diazonino[9,1,2-cd]indolizine-9-carboxamide] | 2.5 nM | 21 nM | 0.46 nM | 14100 nM |
